Assay results published in the supplement of paper PMC11061612.

Key:
[1] = tested on: JHH-1 (Hepatocellular Carcinoma); experiment: combination Emax (second highest fraction inhibited in the dose matrix, 72 h); higher = more inhibition; extreme values may be limits of the assay
How it was run: (§1)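 Cell lines in DMEM/F12 or RPMI with 10% FBS were plated in 1536-well plates, held 24 hours at 37°C, 5% CO2, then given two-drug dose matrices for 72 hours (DMSO typically 0.2%). Viability was read by CellTiter-Glo 2.0 luminescence and scaled as inhibition from 0 (vehicle wells) to 1 (blank wells). Combination Emax is the second-highest inhibition in the matrix; Bliss excess is observed combination effect minus expected EA + EB − EA·EB, EA and EB being single-agent effects.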

[2] = tested on: RERF-LC-KJ (Lung Adenocarcinoma); experiment: as above
How it was run: as §1

[3] = tested on: NCI-H1623 (Lung Adenocarcinoma); experiment: as above
How it was run: as §1

[4] = tested on: HSC-3 (Oral Cavity Carcinoma); experiment: as above
How it was run: as §1

[5] = tested on: HCC-44 (Lung Adenocarcinoma); experiment: as above
How it was run: as §1

[6] = tested on: HCC-44 (Lung Adenocarcinoma); experiment: Bliss excess, mean over the matrix (fraction); higher = more synergy
How it was run: as §1
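For Bliss excess, mean over the matrix in this document: after 72 h of two-drug dosing.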

Row | Structure (SMILES) | combination Emax [1] | combination Emax [2] | combination Emax [3] | combination Emax [4] | combination Emax [5] | Bliss excess [6]
1 | COc1nnc2ccc(N3CCC(c4ccc(OCCN5CCN(C)C(=O)[C@H]5C)cc4)CC3)nn12 [AZD5153] + Cc1c2c(nn1C)CSCc1cc(n(C)n1)CSc1cc(c3ccccc3c1)OCCCc1c(C(=O)O)n(C)c3c-2c(Cl)ccc13 [AZD5991] (first compound max 1 µM, 7x7, partner max 1 µM) | 0.906 | 0.979 | 1 | 0.778 | 0.756 | -0.0332
2 | Cn1cnc2c(F)c(Nc3ccc(Br)cc3Cl)c(C(=O)NOCCO)cc21 [Selumetinib] + CCN(CCO)CCCOc1ccc2c(Nc3cc(CC(=O)Nc4cccc(F)c4)[nH]n3)ncnc2c1 [AZD2811] (first compound max 10 µM, 7x7, partner max 1 µM) | 0.375 | 0.289 | 0.331 | 0.512 | 0.528 | 0.0067
3 | COc1nnc2ccc(N3CCC(c4ccc(OCCN5CCN(C)C(=O)[C@H]5C)cc4)CC3)nn12 [AZD5153] + CC1(C)CCC(CN2CCN(c3ccc(C(=O)NS(=O)(=O)c4ccc(NCC5CCOCC5)c([N+](=O)[O-])c4)c(Oc4cnc5[nH]ccc5c4)c3)CC2)=C(c2ccc(Cl)cc2)C1 [Venetoclax] (first compound max 1 µM, 7x7, partner max 1 µM) | 0.391 | 0.971 | 0.419 | 0.69 | 0.615 | -0.0395
4 | CC(=O)c1c(C)c2cnc(Nc3ccc(N4CCNCC4)cn3)nc2n(C2CCCC2)c1=O [Palbociclib] + Cn1cnc2c(F)c(Nc3ccc(Br)cc3Cl)c(C(=O)NOCCO)cc21 [Selumetinib] (first compound max 10 µM, 7x7, partner max 10 µM) | 0.201 | 0.197 | 0.52 | 0.521 | 0.426 | 0.0332
5 | Cn1cnc2c(F)c(Nc3ccc(Br)cc3Cl)c(C(=O)NOCCO)cc21 [Selumetinib] + C[C@@H]1COCCN1C2=NC(=NC(=C2)C3(CC3)[S@](=N)(=O)C)C4=C5C=CNC5=NC=C4 [AZD6738] (first compound max 10 µM, 7x7, partner max 10 µM) | 0.436 | 0.312 | 0.771 | 0.545 | 0.503 | -0.034
